Data published in patent US12222275B2, “Methods and systems for particle characterisation by imaging free-floating particle movement in liquid enviornment” (VRIJE UNIVERSITEIT BRUSSEL, priority 2019, dated 2025).
Entries after “also recorded” stand apart in the source; their conditions may differ.

Legend:
[1] = test system: C. albicans CAF2-1 wild-type strain; assay: Optical nanomotion detection (ONMD), amphotericin B dose-response; type: cell-based, Candida albicans
Excerpt: (§1) To track single cells, in the present example a cross-correlation image registration algorithm was used. The method was documented to efficiently track subtle modifications of keratin networks in living cells and displacements of myoblasts. The algorithm is based on the initial estimation of the cross-correlation peak between the first and every subsequent frame. […] Our program calculates the cell displacement for each frame and saves the trajectories of tracked cells as well as the root mean square of the displacement to an MS Excel file.
(§2) The cellular x-y movements were monitored by recording 12 s long movies (1000 frames) taken at a magnification of 400× (FIG. 13). By periodically recording these movies, temporal behavior of the cells was characterized as a function of different chemical and physical stimuli (FIG. 13A-B). To track the cellular movements of single cells, we used a cross-correlation image registration algorithm. The algorithm is based on the initial estimation of the cross-correlation peak between the first and every subsequent frame. It provides a numerical value for the image translation with a sub-pixel (sub-μm) resolution. The cell displacement for each frame, the trajectories of tracked cells (FIG. 13C) as well as the root mean square of the total displacement (FIG. 13F) were calculated. Single cell nanomotions were characterized by plotting the distribution of the displacements per frame as a violin plot (FIG. 13D). The movements of the set of 20 cells were characterized by plotting grouped cellular displacements per frame as violin plots and the total displacements of 20 cells over 1000 frames as box-and-whisker plots (FIG. 13E).
(§3) Ten μl of each yeast cell culture was dispensed in one of the microwells, using a 4 Well FulTrac micro-Insert (ibidi, Germany) in an imaging micro-dish (Ibidi, Germany). The yeast cells were allowed to sediment for a period of 10 min before starting the measurement. The movement of cells was observed by taking movies of 1000 frames with a framerate of 84 fps using an EMCCD camera (Andor iXon, Oxford Instruments) using a Nikon TE-2000 microscope with a 40× objective. The Petri dish was kept at 30° C. using a microscope stage top incubator (ibidi, Germany).
The effect of ethanol on the viability of the cells was compared with cells grown in YPD medium as a reference. Therefore, first cell nanomotion videos were recorded and next (after approximately 1 min), 200 μl of ethanol (70% v/v) was added to the top chamber of the 4 micro-Insert wells. Videos were recorded every hour during a period of 5 h. Caspofungin, amphotericin B and fluconazole were used as antifungals in the antifungal susceptibility testing, i.e. to assess their effect on cell viability. Before starting the treatment with the antifungal, reference (no treatment) videos were recorded of yeast cells in YPD medium (time=0 h). Then (at time=1 min) 200 μl of a certain concentration of antifungal was added to the chamber (200 μl) above the 4 microwells. Measurements were taken every hour during a period of 5 h. […]
(§4) The optical nanomotion detection algorithm calculates the cell displacement for each frame and saves the trajectories of tracked cells as well as the root mean square of the displacement to a MS Excel file. […] The Python package nd2 reader (Verweij R, Online: http://www.lighthacking.nl/nd2reader/) was employed to import the videos in the ND2 Nikon format.

[2] = test system: Candida lusitaniae DSY4590; settings: FKS1 S638Y, erg4; ref [7] unpublished; cited from earlier work
C. albicans = settings: cited from earlier work
C. albicans DSY294 = assay: Optical nanomotion detection (ONMD) of free yeast cells, antifungal susceptibility test; type: cell-based, Candida albicans
Excerpt: as §1, §2, §3
(§5) The effect of ethanol on the viability of the cells was compared with cells grown in YPD medium as a reference. Therefore, first cell nanomotion videos were recorded and next (after approximately 1 min), 200 μl of ethanol (70% v/v) was added to the top chamber of the 4 micro-Insert wells. Videos were recorded every hour during a period of 5 h. Caspofungin, amphotericin B and fluconazole were used as antifungals in the antifungal susceptibility testing, i.e. to assess their effect on cell viability. Before starting the treatment with the antifungal, reference (no treatment) videos were recorded of yeast cells in YPD medium (time=0 h). Then (at time=1 min) 200 μl of a certain concentration of antifungal was added to the chamber (200 μl) above the 4 microwells. Measurements were taken every hour during a period of 5 h. As abiotic reference particles, silica microbeads (monodisperse silica standard, Whitehouse Scientific) with a diameter of 3 μm were used. The beads were dissolved in YPD medium and the measurements were performed at 30° C.
(§6) The optical nanomotion detection algorithm calculates the cell displacement for each frame and saves the trajectories of tracked cells as well as the root mean square of the displacement to a MS Excel file. The main part of the program is based on the algorithm of Guizar-Sicairos et al.[14], ported from Matlab to Python in the open source image processing library sci-kit image. The Python package nd2 reader (Verweij R, Online: http://www.lighthacking.nl/nd2reader/) was employed to import the videos in the ND2 Nikon format.

[3] = test system: C. lusitaniae DSY4590 (resistant clinical strain); assay: Optical nanomotion detection (ONMD) of free yeast cells; type: cell-based, Candida lusitaniae; settings: caspofungin 10 μg/ml; FIG. 4b left panel
Excerpt: as §1, §2
(§7) Ten μl of each yeast cell culture was dispensed in one of the microwells, using a 4 Well FulTrac micro-Insert (ibidi, Germany) in an imaging micro-dish (Ibidi, Germany). The yeast cells were allowed to sediment for a period of 10 min before starting the measurement. […]
(§8) The effect of ethanol on the viability of the cells was compared with cells grown in YPD medium as a reference. Therefore, first cell nanomotion videos were recorded and next (after approximately 1 min), 200 μl of ethanol (70% v/v) was added to the top chamber of the 4 micro-Insert wells. Videos were recorded every hour during a period of 5 h. […] Before starting the treatment with the antifungal, reference (no treatment) videos were recorded of yeast cells in YPD medium (time=0 h). […]
as §4

C. lusitaniae DSY4606 = assay: as above; type: cell-based, Candida lusitaniae
Excerpt: as §1, §2, §7, §8, §4

S. cerevisiae BY4742 = assay: as above; type: cell-based, Saccharomyces cerevisiae
Excerpt: as §1, §2, §3, §5, §6

[4] = test system: C. albicans DSY1024 (hypersusceptible, mutant for efflux systems); assay: Optical nanomotion detection (ONMD) of free yeast cells, antifungal susceptibility test; type: cell-based, Candida albicans
Excerpt: as §1, §2, §3, §5, §6

[5] = test system: C. albicans DSY4614 (candin-resistant clinical strain); assay: as above; type: cell-based, Candida albicans
Excerpt: as §1, §2, §3, §5, §6

C. glabrata DSY562 = assay: Optical nanomotion detection (ONMD) of free yeast cells; type: cell-based, Candida glabrata
Excerpt: as §1, §2, §7, §8, §4

S. cerevisiae [6] = settings: cited from earlier work
S. cerevisiae [7] = settings: cited from earlier work; remark: listed apart in the source
osteoblasts = settings: AFM-cantilever method; cited from earlier work
[8] = caspofungin 10 μg/ml, surface-attached cells, FIG. 6, 18F-K
[9] = caspofungin treated, pooled from 1-5-hour treatments, FIG. 7d
[10] = ethanol 70% v/v, ten minutes after addition and diffusive mixing, t-test
[11] = ethanol 70%, ten minutes after addition
[12] = ethanol 70%, Wilcoxon test, FIG. 15

Which results are given for `C[C@@H]1[C@H](O)[C@@H](C)/C=C/C=C/C=C/C=C/C=C/C=C/C=C/[C@H](O[C@@H]2O[C@H](C)[C@@H](O)[C@H](N)[C@@H]2O)C[C@@H]2O[C@](O)(C[C@@H](O)C[C@@H](O)[C@H](O)CC[C@@H](O)C[C@@H](O)CC(=O)O[C@H]1C)C[C@H](O)[C@H]2C(=O)O` [amphotericin B]?
concentration at which the cellular nanomotion is increased, as multiple of MIC [1]: around 10 times the MIC; concentration at which the mean total displacement increased ([1]; after 1 h treatment, FIG. 2g): 10 µg/mL; concentration at which the mean total displacement increased ([1]; after 2 h treatment, FIG. 2h): 4 µg/mL; mean total displacement at higher drug concentrations ([1]; concentrations above 10 μg/ml (1 h) or 4 μg/ml (2 h)): decreased; MIC value detected by ONMD (lowest concentration where a change in nanomotion can be observed) ([1]; total displacement of 20 cells, 'this strain'): 1 to 4 µg/mL; susceptibility of the strain (characteristics) [2]: FKS1, S638Y, erg4 Resistant; reported amphotericin B MIC value, classical microtitre plate method (C. albicans; 'this strain' (CAF2-1 or DSY294, not clear)): 0.3 µg/mL; reported amphotericin B MIC value (C. albicans; C. albicans DSY strains): 0.5 µg/mL; concentration at which the cellular nanomotion is increased, as multiple of MIC (C. albicans DSY294): around 10 times the MIC; concentration at which the total displacement shows an increase (C. albicans DSY294; after 1 h treatment, FIG. 16F): 10 µg/mL; increase of total displacement after 2 h treatment (C. albicans DSY294; after 2 h treatment, FIG. 16G): the increase is reduced; nanomotion signal after 1 h treatment (C. albicans DSY294; amphotericin B 100 μg/ml, 1 h, FIG. 2d): decreased to values close to those recorded on dead cells; time of treatment after which a significant decrease in the mean total displacement was detected (C. albicans DSY294; amphotericin B 100 μg/ml, t-test, FIG. 2d): 1 h; time of treatment after which a significant decrease in cellular displacements and total displacement was detected (C. albicans DSY294; amphotericin B 500 μg/ml, FIG. 16A, 20A): 1 h; cellular nanomotion after 1 h treatment, whole set of 20 cells (C. albicans DSY294; amphotericin B at a high concentration (500 μg/ml), 1 h, FIG. 20A): decreased to values close to those recorded on dead cells

Which “effect of treatment on nanomotion” value [3] does the source give for `CC[C@H](C)C[C@H](C)CCCCCCCCC(=O)N[C@H]1C[C@@H](O)[C@@H](NCCN)NC(=O)[C@@H]2[C@@H](O)CCN2C(=O)[C@H]([C@H](O)CCN)NC(=O)[C@H]([C@H](O)[C@@H](O)c2ccc(O)cc2)NC(=O)[C@@H]2C[C@@H](O)CN2C(=O)[C@H]([C@@H](C)O)NC1=O` [caspofungin] here?
Its value is “not affected”.

And the “killing of cells judged by nanomotion” value (C. lusitaniae DSY4606; caspofungin 10 μg/ml, FIG. 4b right panel)?
Its value is “killed”.

What about the “time of treatment after which a significant decrease of the total displacement was observed” value (S. cerevisiae BY4742; caspofungin 10 μg/ml, FIG. 5a) of the same molecule?
Its value is 3 h.

What about the “killing of cells judged by nanomotion” value ([4]; caspofungin 10 μg/ml, FIG. 2f, 16D) of the same molecule?
Its value is “did kill”.

And the “total displacement of cells attached to concanavalin A coated glass, treated versus untreated” value (from here on “total displacement … treated versus untreated”) [4, 8]?
Its value is “no significant decrease of the total displacement; also recorded: no significant difference”.

What about the “additional fcrit of treated cells” value [4, 9] of the same molecule?
The value was “around 2 Hz”.

And the “critical frequency (fcrit) distribution of treated cells, extent of broadening” value [4, 9]?
Its value is “most extended”.

And the effect on nanomotion ([5]; caspofungin 10 μg/ml, FIG. 2e, 16E)?
The effect on nanomotion was “did not affect the nanomotion”.

And the “total displacement … treated versus untreated” value ([5]; caspofungin 10 μg/ml, surface-attached cells, FIG. 6)?
Its value is “no significant decrease of the total displacement”.

And the “critical frequency (fcrit) distribution of treated cells” value [5, 9]?
Its value is “broadening of their fcrit”.

What about the “total displacement … treated versus untreated” value (C. albicans DSY294; [8]) of the same molecule?
The value was “no significant decrease of the total displacement; also recorded: no significant difference”.

What about the “time of treatment after which a significant decrease in (mean) total displacement was detected” value (C. albicans DSY294; caspofungin 100 μg/ml, FIG. 2d, 16B) of the same molecule?
Its value is 1 h.

What about the “critical frequency (fcrit) distribution of treated cells” value (C. albicans DSY294; [9]) of the same molecule?
The value was “broadening of their fcrit”.

What about the “time of treatment after which the cells were dead (nanomotion AFST)” value (C. glabrata DSY562; caspofungin, FIG. 4a) of the same molecule?
Its value is 2 h.

With `CCO` [ethanol] as the molecule, how does the “change of total displacement” value (C. lusitaniae DSY4606; [10]) read?
The value was “significant (t-test) decrease”.

What about the “displacements in the set of 20 cells” value (C. lusitaniae DSY4606; [11]) of the same molecule?
The value was “reduction of the displacements”.

What about the “higher ethanol concentrations that impair the cell membrane integrity, eventually apoptotic cell death” value (S. cerevisiae [6]) of the same molecule?
The value was greater than 10%.

What about the “moderate ethanol concentrations that affect the growth rate” value (S. cerevisiae [6]) of the same molecule?
Its value is 5-7%.

And the “change of total displacement” value (S. cerevisiae BY4742; [10])?
The value was “significant (t-test) decrease”.

And the “time after which a significant decrease of the total displacement was observed” value (S. cerevisiae BY4742; [12])?
The value was 60 min.

And the “displacements in the set of 20 cells” value (S. cerevisiae BY4742; [11])?
The value was “reduction of the displacements”.

And the “time of treatment after which a significant decrease of the total displacement was measured” value (C. albicans DSY294; ethanol 70% v/v, t-test, FIG. 2c)?
Its value is 60 min.

And the “displacements in the set of 20 cells” value (C. albicans DSY294; [11])?
The value was “reduction of the displacements”.

And the “change of total displacement” value (C. glabrata DSY562; [10])?
The value was “significant (t-test) decrease”.

And the “time after which a significant decrease of the total displacement was observed” value (C. glabrata DSY562; [12])?
The value was 60 min.

What about the “displacements in the set of 20 cells” value (C. glabrata DSY562; [11]) of the same molecule?
The value was “reduction of the displacements”.

With `OC(Cn1cncn1)(Cn1cncn1)c1ccc(F)cc1F` [fluconazole] as the molecule, how does the “fluconazole MIC value” (S. cerevisiae [7]) read?
Its value is 1 to 8 µg/mL.

And the “effect on total displacement after 1 h of treatment” value (S. cerevisiae BY4742; fluconazole 400 μg/ml, 1 h, FIG. 5b)?
The value was “no effect”.

And the “time of treatment after which a significant decrease in total displacement was obvious” value (S. cerevisiae BY4742; fluconazole 400 μg/ml, FIG. 5b)?
The value was 5 h.

What about the “time of treatment after which a significant decrease in (mean) total displacement was detected” value (C. albicans DSY294; fluconazole 400 μg/ml, FIG. 2d, 16C) of the same molecule?
Its value is 1 h.

Which “cellular movement after depolymerizing the actin cytoskeleton” value (osteoblasts) does the source give for cytochalasin here?
Its value is “reduced cellular movement”.
